Assay results from paper PMC9015998, “Non-clinical Pharmacology of YTX-7739: a Clinical Stage Stearoyl-CoA Desaturase Inhibitor Being Developed for Parkinson’s Disease” (Molecular Neurobiology, 2022).

Biological target: T1, rat SCD (Rattus norvegicus, UniProt P07308)
T1 construct: rat liver microsomes (RLMs) isolated from rats fed a […] to induce SCD expression; from tissue; host or cells: rat liver microsomes (SCD-induced by diet); assay run at PureHoney Technologies
T1 sequence (P07308 1-358): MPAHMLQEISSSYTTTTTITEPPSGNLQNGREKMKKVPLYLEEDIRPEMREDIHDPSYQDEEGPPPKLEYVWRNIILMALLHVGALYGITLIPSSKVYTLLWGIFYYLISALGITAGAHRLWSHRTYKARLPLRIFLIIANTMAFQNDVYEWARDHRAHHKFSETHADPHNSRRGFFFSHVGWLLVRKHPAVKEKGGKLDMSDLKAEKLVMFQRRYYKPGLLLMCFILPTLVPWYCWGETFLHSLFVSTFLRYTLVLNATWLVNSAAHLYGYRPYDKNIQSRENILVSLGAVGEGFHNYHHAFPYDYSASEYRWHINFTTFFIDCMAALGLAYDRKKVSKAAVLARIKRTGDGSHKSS
Assay: SCD enzyme assay in SCD-induced rat liver microsomes (RLM)
Format: biochemical
Conditions: C17:0-CoA substrate, Rapid-Fire mass spectrometry
Method: The SCD biochemical assay has been described previously (Vincent et al., 2018). In brief, SCD-induced rat liver microsomes (RLM) were isolated from […] fed a high-carbohydrate, low-fat diet for 5 days. RLM were then used in an optimized biochemical assay using C17:0-CoA as a substrate (Avanti Lipids, #870,717) and Rapid-Fire mass spectrometry to quantify conversion to C17:1-CoA. The RLM assay was performed at PureHoney Technologies (Billerica, MA).
An iterative medicinal chemistry campaign identified YTX-7739 as a SCD inhibitor that reduced conversion of saturated to unsaturated fatty acids (Fig. 1A). The potency of YTX-7739 in inhibiting SCD activity was initially assessed in rat liver microsomes (RLMs) isolated from rats fed a […] to induce SCD expression. RLMs were then used in conjunction with a synthetic C17:0-CoA SCD substrate and rapid-fire mass spectrometry to assess enzyme activity.
Fig. 1 Characterization of in vitro properties of YTX-7739. A SCD reaction converting CoA-linked saturated to monounsaturated fatty acids of 16 (palmitoleic acid) or 18 (oleic acid) carbons in length. […] B YTX-7739 and a reference SCD inhibitor (CAY10566) was tested in a biochemical assay using SCD-induced RLM and C17:0-CoA with Rapid-Fire mass spectrometry as an analytical readout. […] The calculated IC50 values are inset. […]

Cc1nnc(-c2ccc(N3CCC(Oc4cc(F)ccc4Cl)CC3)nn2)o1 [CAY10566]
IC50: 1.1 nM
